Patent EP4775208A1, “USE OF PRMT5 INHIBITOR IN TREATMENT OF TUMORS OR CANCERS” (Apeiron Therapeutics (Hong Kong) Ltd., priority 2023, dated 2025)
Values joined by “and” are separate entries in the source; they are usually repeats but may differ in a detail not shown here. Equal values may be shown once. Read-outs that look alike come from different tables or passages of the source.

Experiment: Mouse brain penetration pharmacokinetics study (plasma and brain)
Assay type: in vivo, ICR male mice
Experimental: IV. Mouse Brain Penetration Pharmacokinetics Study
The test compounds used in this study were the compounds described in the specific examples of the present disclosure.
ICR male mice, N=3/group; sourced from Zhejiang Vital River Laboratory Animal Technology Co., Ltd.
3. Drug Preparation and Administration
Single oral (PO) administration to ICR mice: Compounds were dissolved in dimethyl sulfoxide, added to polyethylene glycol 400 and sterile water, and then adjusted to a clear solution with a small amount of 1 mol/L hydrochloric acid. After overnight fasting, the mice were orally gavaged with a dose of 30 mg/kg or 100 mg/kg.
Blood Collection and Processing: Mice were anesthetized with 5% isoflurane for 3-4 minutes until loss of consciousness. Whole blood (500 µL per time point) was collected via cardiac puncture using dipotassium EDTA (K2EDTA) as the anticoagulant. Plasma was separated by centrifugation ([…] for 5 minutes at 4°C). […] The samples were stored at -80°C.
Brain Tissue Collection: Following complete exsanguination, the thoracic cavity was opened with scissors. The right atrium was incised, and a needle was inserted into the left ventricle. Transcardial perfusion was performed with physiological saline (approximately 10 mL). Upon completion of perfusion, the skull was opened, and brain tissues were harvested and stored at -80°C.
Sample Preparation: A 30 µL plasma aliquot (consisting of 10 µL study sample and 20 µL blank plasma) was mixed with 200 µL of ice-cold acetonitrile containing an internal standard (IS). The mixture was vortexed for 30 seconds and then centrifuged at 4,000 g/min for 20 minutes. A 100 µL aliquot of the supernatant was transferred to a 96-well plate and mixed with 200 µL of ultrapure water. After vortexing for 30 seconds, a volume of 5 µL or 10 µL was injected into the LC-MS/MS system for analysis.
Brain Homogenate Preparation: Brain tissue samples were weighed and homogenized in phosphate-buffered saline (PBS) at a 1:4 ratio (tissue weight [g] to PBS volume [mL]). A 30 µL aliquot of brain homogenate (consisting of 10 µL study sample and 20 µL blank brain homogenate) was mixed with 200 µL of ice-cold acetonitrile containing an internal standard. The mixture was vortexed for 30 seconds and centrifuged at 4,000 g/min for 20 minutes. A 100 µL aliquot of the supernatant was transferred to a 96-well plate and mixed with 200 µL of ultrapure water. After vortexing for 30 seconds, a volume of 2 µL or 10 µL was injected into the LC-MS/MS system for analysis. Table 9: PK data

[1] = ICR male mice, PO(30mg/kg), sampling time 4 h, individual animals, 30 mg/kg
[2] = ICR male mice, PO(30mg/kg), sampling time 8 h, individual animals, 30 mg/kg
[3] = ICR male mice, PO(30mg/kg), sampling time 12 h, individual animals, 30 mg/kg
[4] = ICR male mice, PO(30mg/kg), sampling time 24 h, individual animals, 30 mg/kg
[5] = ICR male mice, PO(30mg/kg), sampling time 36 h, individual animals, 30 mg/kg
[6] = ICR male mice, PO(100mg/kg), sampling time 2 h, individual animals, 100 mg/kg
[7] = ICR male mice, PO(100mg/kg), sampling time 4 h, individual animals, 100 mg/kg
[8] = ICR male mice, PO(100mg/kg), sampling time 8 h, individual animals, 100 mg/kg
[9] = ICR male mice, PO(100mg/kg), sampling time 24 h, individual animals, 100 mg/kg

With `CN(C(=O)c1ccc2nc(N)c3cncn3c2c1)[C@@H]1COc2cc(C(F)(F)F)ccc21` [Example 107, (S)-4-amino-N-methy 1-N-(6-(trifluoromethy 1)-2,3-dihydrobenzofuran-3-yl)imidazo[1,5-a]quinoxaline-8-carboxamide] the B/P ratio [1] was 0.122 and 0.152, the Brain concentration [1] was 885 ng/g and 1290 ng/g and 1780 ng/g and the Plasma concentration [1] was 10600 ng/mL and 11700 ng/mL. The B/P ratio [2] was 0.227 and 0.305, the Brain concentration [2] was 1700 ng/g and 2080 ng/g and the Plasma concentration [2] was 7500 ng/mL and 6810 ng/mL. The B/P ratio [3] was 0.435 and 0.320, the Brain concentration [3] was 1040 ng/g and 855 ng/g and the Plasma concentration [3] was 2390 ng/mL and 2670 ng/mL. For the same compound, the B/P ratio [4] was 0.186 and 0.225, the Brain concentration [4] was 47.6 ng/g and 65.0 ng/g and 142 ng/g and the Plasma concentration [4] was 201 ng/mL and 349 ng/mL and 631 ng/mL. For the same compound, the B/P ratio [5] was 0.653 and 0.705, the Brain concentration [5] was 25.0 ng/g and 19.1 ng/g and the Plasma concentration [5] was 38.3 ng/mL and 27.1 ng/mL. For the same compound, the B/P ratio [6] was 0.114 and 0.195, the Brain concentration [6] was 6650 ng/g and 4740 ng/g and 10800 ng/g and the Plasma concentration [6] was 41500 ng/mL and 55400 ng/mL. The B/P ratio [7] was 0.143 and 0.168, the Brain concentration [7] was 4560 ng/g and 6100 ng/g and the Plasma concentration [7] was 32000 ng/mL and 36400 ng/mL. The B/P ratio [8] was 0.151 and 0.142, the Brain concentration [8] was 1455 ng/g and 2480 ng/g and the Plasma concentration [8] was 9620 ng/mL and 17500 ng/mL. For the same compound, the B/P ratio [9] was 0.278 and 0.222, the Brain concentration [9] was 356 ng/g and 434 ng/g and the Plasma concentration [9] was 1280 ng/mL and 1950 ng/mL. The Kp at 4 h (male, ICR, mouse, brain and plasma, po, 30 mg/kg, ICR male mice, PO(30mg/kg), sampling time 4 h, individual animals, read-out: B/P ratio) was 0.118, the Kp at 8 h (male, ICR, mouse, brain and plasma, po, 30 mg/kg, ICR male mice, PO(30mg/kg), sampling time 8 h, individual animals, read-out: B/P ratio) was 0.286 and the Kp at 12 h (male, ICR, mouse, brain and plasma, po, 30 mg/kg, ICR male mice, PO(30mg/kg), sampling time 12 h, individual animals, read-out: B/P ratio) was 0.365. The Kp at 24 h (male, ICR, mouse, brain and plasma, po, 30 mg/kg, ICR male mice, PO(30mg/kg), sampling time 24 h, individual animals, read-out: B/P ratio) was 0.237, the Kp at 36 h (male, ICR, mouse, brain and plasma, po, 30 mg/kg, ICR male mice, PO(30mg/kg), sampling time 36 h, individual animals, read-out: B/P ratio) was 0.605 and the Kp at 2 h (male, ICR, mouse, brain and plasma, po, 100 mg/kg, ICR male mice, PO(100mg/kg), sampling time 2 h, individual animals, read-out: B/P ratio) was 0.171. The Kp at 4 h (male, ICR, mouse, brain and plasma, po, 100 mg/kg, ICR male mice, PO(100mg/kg), sampling time 4 h, individual animals, read-out: B/P ratio) was 0.168, the Kp at 8 h (male, ICR, mouse, brain and plasma, po, 100 mg/kg, ICR male mice, PO(100mg/kg), sampling time 8 h, individual animals, read-out: B/P ratio) was 0.2 and the Kp at 24 h (male, ICR, mouse, brain and plasma, po, 100 mg/kg, ICR male mice, PO(100mg/kg), sampling time 24 h, individual animals, read-out: B/P ratio) was 0.321. The concentration at 8 h (male, ICR, mouse, brain, po, 30 mg/kg, ICR male mice, PO(30mg/kg), sampling time 8 h, individual animals, read-out: Brain concentration) was 1820 ng/g, the concentration at 12 h (male, ICR, mouse, brain, po, 30 mg/kg, ICR male mice, PO(30mg/kg), sampling time 12 h, individual animals, read-out: Brain concentration) was 1000 ng/g and the concentration at 36 h (male, ICR, mouse, brain, po, 30 mg/kg, ICR male mice, PO(30mg/kg), sampling time 36 h, individual animals, read-out: Brain concentration) was 30 ng/g. The concentration at 4 h (male, ICR, mouse, brain, po, 100 mg/kg, ICR male mice, PO(100mg/kg), sampling time 4 h, individual animals, read-out: Brain concentration) was 5550 ng/g, the concentration at 8 h (male, ICR, mouse, brain, po, 100 mg/kg, ICR male mice, PO(100mg/kg), sampling time 8 h, individual animals, read-out: Brain concentration) was 2460 ng/g and the concentration at 24 h (male, ICR, mouse, brain, po, 100 mg/kg, ICR male mice, PO(100mg/kg), sampling time 24 h, individual animals, read-out: Brain concentration) was 427 ng/g. For the same compound, the concentration at 4 h (male, ICR, mouse, plasma, po, 30 mg/kg, ICR male mice, PO(30mg/kg), sampling time 4 h, individual animals, read-out: Plasma concentration) was 7520 ng/mL, the concentration at 8 h (male, ICR, mouse, plasma, po, 30 mg/kg, ICR male mice, PO(30mg/kg), sampling time 8 h, individual animals, read-out: Plasma concentration) was 6370 ng/mL and the concentration at 12 h (male, ICR, mouse, plasma, po, 30 mg/kg, ICR male mice, PO(30mg/kg), sampling time 12 h, individual animals, read-out: Plasma concentration) was 2750 ng/mL. The concentration at 36 h (male, ICR, mouse, plasma, po, 30 mg/kg, ICR male mice, PO(30mg/kg), sampling time 36 h, individual animals, read-out: Plasma concentration) was 49.6 ng/mL, the concentration at 2 h (male, ICR, mouse, plasma, po, 100 mg/kg, ICR male mice, PO(100mg/kg), sampling time 2 h, individual animals) was 38800 ng/mL and the concentration at 4 h (male, ICR, mouse, plasma, po, 100 mg/kg, ICR male mice, PO(100mg/kg), sampling time 4 h, individual animals, read-out: Plasma concentration) was 33100 ng/mL. For the same compound, the concentration at 8 h (male, ICR, mouse, plasma, po, 100 mg/kg, ICR male mice, PO(100mg/kg), sampling time 8 h, individual animals, read-out: Plasma concentration) was 12300 ng/mL, the concentration at 24 h (male, ICR, mouse, plasma, po, 100 mg/kg, ICR male mice, PO(100mg/kg), sampling time 24 h, individual animals, read-out: Plasma concentration) was 1330 ng/mL and the brain penetration (rodents (ICR mice), oral 30 mg/kg or 100 mg/kg, result in words) was “favorable brain penetration”.
